Measurements taken from patent EP4617282A1, “MEMBRANE FUSION INHIBITOR FOR […] VIRUS AND DRUG-RESISTANT STRAIN THEREOF, AND PHARMACEUTICAL USE THEREOF” (Institute Of Pathogen Biology, Chinese Academy Of Medical …, priority 2022, dated 2024).
Residues, ends and D or L forms follow the SMILES beside them. *: point of attachment. Succinyl(4-O-cholesteryl) = CC(C)CCC[C@@H](C)[C@H]1CC[C@H]2[C@@H]3CC=C4C[C@@H](OC(=O)CCC(=O)*)CC[C@]4(C)[C@H]3CC[C@]12C

Assays:
HIV-1NL4-3 pseudovirus = type: cell-based; conditions: TZM-b1 cells, 100 TCID50, 48 hours
Text: (§1) HIV-1JRFL Env expression vectors and backbone plasmas (pSG3 ΔEnv) and TZM-bl cells were described in the following literature: Xue, J., Chong, H., Zhu, Y, Zhang, J., Tong, L., Lu, J., Chen, T., Cong, Z., Wei, Q., He, Y., 2022. Efficient treatment and pre-exposure prophylaxis in rhesus macaques by an HIV fusion-inhibitory lipopeptide. Cell 185, 131-144 e118. The HIV-1JRFL Env expression vector and the backbone plasmas (pSG3 ΔEnv) were co-transfected into HEK293T cells, and the transfected cells were cultured in a cell culture incubator at 37 °C and 5% CO2 for 48 hours, and then the supernatant was collected and filtered to collect the filtrate. The resulting filtrate was a virus solution containing HIV-1JRFL pseudovirus particles (called as HIV-1JRFL virus solution), which was preserved at -80 °C for later use.
The preparation method of the HIV-1NL4-3 virus solution (i.e., the virus solution containing HIV-1NL4-3 pseudovirus particle) was basically the same as that of the HIV-1JRFL virus liquid, except that the HIV-1JRFL Env expression vector was replaced with HIV-1NL4-3 Env expression vector. […]
Test virus solution: HIV-1NL4-3 virus solution or HIV-1JRFL virus solution. • 1. […] Relative luminescence units (RLU) were measured by a microplate luminometer, an inhibition rate curve was made, and the half-maximal inhibition concentration (IC50) of the drug was calculated. […]

HIV-1JRFL pseudovirus = type: cell-based; conditions: TZM-b1 cells, 100 TCID50, 48 hours
Text: as §1
Test virus solution: HIV-1NL4-3 virus solution or HIV-1JRFL virus solution. • 1. A test lipopeptide was dissolved in deionized water and then diluted with DMEM medium (using 3-fold dilution) to obtain a lipopeptide diluent. 9 dilutions were set for each test lipopeptide. • 2. In a 96-well plate, the lipopeptide diluent (50 µL/well) was added to drug wells and the DMEM medium (50 µL/well) was added to control wells. Each well was set with three duplicate wells. • 3. After step 2 was finished, a test virus solution (50 µL/well, a virus content of 100 TCID50) was added to the 96-well plate and incubated at room temperature for 30 minutes. • 4. After step 3 was finished, a TZM-b1 cell suspension (100 µL/well) was added to the 96-well plate and cultured for 48 hours in a cell culture incubator at 37 °C and 5% CO2. Preparation method of the TZM-b1 cell suspension: TZM-b1 cells were re-suspended in a DMEM medium and DEAE-dextran was added thereto such that the cell concentration was 10×10^4 cells/mL and the DEAE-dextran concentration was 15 µg/mL. • 5. […] Relative luminescence units (RLU) were measured by a microplate luminometer, an inhibition rate curve was made, and the half-maximal inhibition concentration (IC50) of the drug was calculated. […]

## CC[C@H](C)[C@H](NC(=O)[C@H](CCCCN)NC(=O)[C@H](CCC(N)=O)NC(=O)[C@H](CCC(=O)O)NC(=O)[C@H](Cc1ccc(O)cc1)NC(C)=O)C(=O)N[C@@H](CCC(=O)O)C(=O)N[C@@H](CCC(=O)O)C(=O)N[C@@H](CC(C)C)C(=O)N[C@@H](CC(C)C)C(=O)N[C@@H](CCCCN)C(=O)N[C@@H](CCCCN)C(=O)N[C@@H](C)C(=O)N[C@@H](CCC(=O)O)C(=O)N[C@@H](CCC(=O)O)C(=O)N[C@@H](CCC(N)=O)C(=O)N[C@@H](CCC(N)=O)C(=O)N[C@@H](CCCCN)C(=O)N[C@@H](CCCCN)C(=O)N[C@@H](CC(N)=O)C(=O)N[C@@H](CCC(=O)O)C(=O)N[C@@H](CCC(=O)O)C(=O)N[C@@H](CCC(=O)O)C(=O)N[C@@H](CC(C)C)C(=O)N[C@@H](CCCCN)C(=O)N[C@@H](CCCCN)C(=O)N[C@@H](CC(C)C)C(=O)N[C@@H](CCC(=O)O)C(=O)N[C@@H](CCCCNC(=O)CCC(=O)O[C@H]1CC[C@@]2(C)C(=CC[C@H]3[C@@H]4CC[C@H]([C@H](C)CCCC(C)C)[C@@]4(C)CC[C@@H]32)C1)C(N)=O [LP-98, reference compound] (Ac-YEQKIEELLKKAEEQQKKNEEELKKLEK(Succinyl(4-O-cholesteryl))-NH2)
HIV-1NL4-3 pseudovirus
  IC50: 1.07 pM
HIV-1JRFL pseudovirus
  IC50: 2.58 pM

## CC[C@H](C)[C@H](NC(=O)[C@H](CCC(=O)O)NC(C)=O)C(=O)N[C@@H](CCC(=O)O)C(=O)N[C@@H](CCC(=O)O)C(=O)N[C@@H](CC(C)C)C(=O)N[C@@H](CCC(=O)O)C(=O)N[C@@H](CCCCN)C(=O)N[C@@H](CCCCN)C(=O)N[C@H](C(=O)N[C@@H](CCC(=O)O)C(=O)N[C@@H](CCC(=O)O)C(=O)N[C@@H](CC(C)C)C(=O)N[C@@H](CC(C)C)C(=O)N[C@@H](CCCCN)C(=O)N[C@@H](CCCCN)C(=O)N[C@@H](C)C(=O)N[C@@H](CCC(=O)O)C(=O)N[C@@H](CCC(=O)O)C(=O)N[C@@H](CCC(N)=O)C(=O)N[C@@H](CCC(N)=O)C(=O)N[C@@H](CCCCN)C(=O)N[C@@H](CCCCN)C(=O)N[C@@H](CC(N)=O)C(=O)N[C@@H](CCC(=O)O)C(=O)N[C@@H](CCC(=O)O)C(=O)N[C@@H](CCC(=O)O)C(=O)N[C@@H](CC(C)C)C(=O)N[C@@H](CCCCN)C(=O)N[C@@H](CCCCN)C(=O)N[C@@H](CC(C)C)C(=O)N[C@@H](CCC(=O)O)C(=O)N[C@@H](CCCCNC(=O)CCC(=O)O[C@H]1CC[C@@]2(C)C(=CC[C@H]3[C@@H]4CC[C@H]([C@H](C)CCCC(C)C)[C@@]4(C)CC[C@@H]32)C1)C(N)=O)[C@@H](C)CC [LP-101] (Ac-EIEELEKKIEELLKKAEEQQKKNEEELKKLEK(Succinyl(4-O-cholesteryl))-NH2)
HIV-1JRFL pseudovirus
  IC50: 2.26 pM

## CC[C@H](C)[C@H](NC(=O)[C@H](CCCCN)NC(=O)[C@H](CCCCN)NC(=O)[C@H](CCC(=O)O)NC(=O)[C@H](Cc1c[nH]c2ccccc12)NC(=O)[C@H](CCC(=O)O)NC(=O)[C@H](CCC(=O)O)NC(=O)[C@H](Cc1c[nH]c2ccccc12)NC(C)=O)C(=O)N[C@@H](CCC(=O)O)C(=O)N[C@@H](CCC(=O)O)C(=O)N[C@@H](CC(C)C)C(=O)N[C@@H](CCC(=O)O)C(=O)N[C@@H](CCCCN)C(=O)N[C@@H](CCCCN)C(=O)N[C@H](C(=O)N[C@@H](CCC(=O)O)C(=O)N[C@@H](CCC(=O)O)C(=O)N[C@@H](CC(C)C)C(=O)N[C@@H](CC(C)C)C(=O)N[C@@H](CCCCN)C(=O)N[C@@H](CCCCN)C(=O)N[C@@H](C)C(=O)N[C@@H](CCC(=O)O)C(=O)N[C@@H](CCC(=O)O)C(=O)N[C@@H](CCC(N)=O)C(=O)N[C@@H](CCC(N)=O)C(=O)N[C@@H](CCCCN)C(=O)N[C@@H](CCCCN)C(=O)N[C@@H](CC(N)=O)C(=O)N[C@@H](CCC(=O)O)C(=O)N[C@@H](CCC(=O)O)C(=O)N[C@@H](CCC(=O)O)C(=O)N[C@@H](CC(C)C)C(=O)N[C@@H](CCCCN)C(=O)N[C@@H](CCCCN)C(=O)N[C@@H](CC(C)C)C(=O)N[C@@H](CCC(=O)O)C(=O)N[C@@H](CCCCNC(=O)CCC(=O)O[C@H]1CC[C@@]2(C)C(=CC[C@H]3[C@@H]4CC[C@H]([C@H](C)CCCC(C)C)[C@@]4(C)CC[C@@H]32)C1)C(N)=O)[C@@H](C)CC [LP-104] (Ac-WEEWEKKIEELEKKIEELLKKAEEQQKKNEEELKKLEK(Succinyl(4-O-cholesteryl))-NH2)
HIV-1NL4-3 pseudovirus
  IC50: 14.5 pM
HIV-1JRFL pseudovirus
  IC50: 60.2 pM
